Data from patent publication US20160052898A1, “NOVEL COMPOUNDS” (BAYER PHARMA AKTIENGESELLSCHAFT, priority 2013, published 2016).
Where two headings read alike, the source gives them in different places.

Columns and labels:
[1] = test system: constitutive active colorectal cancer cell (CRC) Wnt pathway; assay: HCT116 Super TopFlash cellular reporter assay (constitutive active Wnt pathway); type: cell-based; conditions: HCT116 TOP reporter cells, luciferase expression, 36 hours incubation, 50 μM to 15 nM
Experimental: In order to discover and characterize small molecules which inhibit the constitutive active colorectal cancer cell (CRC) Wnt pathway, a cellular reporter assay was employed. The corresponding assay cell was generated by transfection of the colorectal cancer cell line HCT116 (ATCC, #CCL-247) with the Super TopFlash vector (Morin, Science 275, 1997, 1787-1790; Molenaar et al., Cell 86 (3), 1996, 391-399). The HCT116 cell line is cultivated at 37° C. and 5% CO2 in DMEM/F-12 (Life Technologies, #11320-074), supplemented with 2 mM glutamine, 20 mM HEPES, 1.4 mM pyruvate, 0.15% Na-bicarbonate and 10% foetal bovine serum (GIBCO, #10270), this cancer cell line is pathophysiological relevant since it carries a deletion of position S45 in the β-catenin gene, leading to constitutive active Wnt signaling. Stable transfectants were generated by cotransfection with pcDNA3 and selection of stable transfected cells with 1 mg/ml G418.
(§1) In a parallel approach, HCT116 cells were cotransfected with the FOP control vector and pcDNA3. The FOP vector is identical to the TOP construct, but it contains instead of functional TCF elements a randomized, non-functional sequence. For this transfection a stable transfected cell line was generated as well.
(§2) In preparation of the assay, the two cell lines were plated 24 hrs before at 10000 cells per well of a 384 micro titre plate (MTP) in 30 μL growth medium. Selective inhibitory activity for small molecules on the mutated Wnt pathway was determined after parallel incubation of both (TOP and FOP) HCT116 reporter cell lines with a compound dilution series from 50 μM to 15 nM in steps of 3.16-fold dilutions in CAFTY buffer (130 mM NaCl, 5 mM KCl, 20 mM HEPES, 1 mM MgCl2, 5 mM NaHCO3, pH 7.4) containing 2 mM Ca^2+ and 0.01% BSA. The compounds were thereby serially prediluted in 100% DMSO and thereafter in addition 50 fold into the CAFTY compound dilution buffer (described above). From this dilution 10 μL were added to the cells in 30 μL growth medium and incubated for 36 hours at 37° C. and 5% CO2. Thereafter luciferase assay buffer (1:1 mixture of luciferase substrate buffer (20 mM Tricine, 2.67 mM MgSO4, 0.1 mM EDTA, 4 mM DTT, 270 μM Coenzyme A, 470 μM Luciferin, 530 μM ATP, ph adjusted to pH 7.8 with a sufficient volume of 5M NaOH) and Triton buffer (30 mL Triton X-100, 115 mL glycerol, 308 mg Dithiothreitol, 4.45 g Na2HPO4.2 H2O, 3.03 g Tris.HCL, ad 1 l H20, pH 7.8) was added as equal volume to the compound solution on the cells to determine luciferase expression as a measure of Wnt signaling activity in a luminometer.

[2] = test system: HCT116 FOP control reporter cell line; assay: HCT116 FOP control vector reporter assay (non-functional TCF elements); type: cell-based; conditions: HCT116 FOP control reporter cells, luciferase expression, 36 hours incubation, 50 μM to 15 nM, read-out: HCT116 FOPFlash IC50
Experimental: as §1, §2

Row | SMILES | IC50 ([1]; Homo sapiens, HCT-116, 36 h) [nM] | IC50 ([2]; Homo sapiens, HCT-116, 36 h) [µM] | IC50 [1] [nM] | IC50 [2] [µM]
1 | CCC(C(=O)Nc1cc(C(=O)Nc2ccc(-c3ccccc3)cc2)ccc1OC)N1CCOCC1 (stereo not shown) [Example 99, N-(biphenyl-4-yl)-4-methoxy-3-{[2-(morpholin-4-yl)butanoyl]amino}benzamide] | 380 | ≥ 50 | – | –
2 | O=C(CN1CCOCC1)Nc1cc(C(=O)Nc2ccc(-c3ccccc3)cc2)ccc1C(=O)NCCCN1CCCC1 [Example 103, N^4-(biphenyl-4-yl)-2-[(morpholin-4-ylacetyl)amino]-N-[3-(pyrrolidin-1-yl)propyl]terephthalamide] | 302 | 7.4 | – | –
3 | CN(C)CCCNC(=O)c1ccc(C(=O)Nc2ccc(-c3ccccc3)cc2)cc1NC(=O)CN1CCOCC1 [Example 104, N^4-(biphenyl-4-yl)-N^1-[3-(dimethylamino)propyl]-2-[(morpholin-4-ylacetyl)amino]terephthalamide] | 534 | 7.4 | – | –
4 | CN(C)CCNC(=O)c1ccc(C(=O)Nc2ccc(-c3ccccc3)cc2)cc1NC(=O)CN1CCOCC1 [Example 105, formic acid —N^4-(biphenyl-4-yl)-N^1-[2-(dimethylamino)ethyl]-2-[(morpholin-4-ylacetyl)amino]terephthalamide (1:1)] | 552 | 7.8 | – | –
5 | C[S+]([O-])c1ccc(C(=O)Nc2ccc(-c3ccccc3)cc2)cc1NC(=O)CN1CCOCC1 (stereo not shown) [Example 110, N-(biphenyl-4-yl)-4-(methylsulfinyl)-3-[(morpholin-4-ylacetyl)amino]benzamide] | 366 | 6.5 | – | –
6 | COc1ccc(NC(=O)c2ccc(-c3ccc(NC(C)=O)cc3)cc2)cc1NC(=O)CN1CCOCC1 [Example 118, 4′-acetamido-N-{4-methoxy-3-[(morpholin-4-ylacetyl)amino]phenyl}biphenyl-4-carboxamide] | 960 | ≥ 50 | – | –
7 | CNc1ccc(-c2ccc(C(=O)Nc3ccc(OC)c(NC(=O)CN4CCOCC4)c3)cc2)cc1 [Example 119, N-{4-methoxy-3-[(morpholin-4-ylacetyl)amino]phenyl}-4′-(methylamino)biphenyl-4-carboxamide] | 260 | ≥ 50 | – | –
8 | COc1ccc(NC(=O)c2ccc(-c3ccc(CN)cc3)cc2)cc1NC(=O)CN1CCOCC1 [Example 120, 4′-(aminomethyl)-N-{4-methoxy-3-[(morpholin-4-ylacetyl)amino]phenyl}biphenyl-4-carboxamide] | 755 | ≥ 50 | – | –
9 | NC(=O)COc1ccc(C(=O)Nc2ccc(-c3ccccc3)cc2)cc1NC(=O)CN1CCOCC1 [Example 122, 4-(2-amino-2-oxoethoxy)-N-(biphenyl-4-yl)-3-[(morpholin-4-ylacetyl)amino]benzamide] | 338 | 15.5 | – | –
10 | COc1ccc(C(=O)Nc2ccc(-c3cc(F)cc(F)c3)c(F)c2)cc1NC(=O)CN1CCOCC1 [Example 123, 4-methoxy-3-[(morpholin-4-ylacetyl)amino]-N-(2,3′,5′-trifluorobiphenyl-4-yl)benzamide] | 400 | ≥ 50 | – | –
11 | COc1ccc(C(=O)Nc2ccc(-c3ccccc3)cc2)cc1NC(=O)C1(N2CCN(C)CC2)CC1 [Example 133, N-(biphenyl-4-yl)-4-methoxy-3-({[1-(4-methylpiperazin-1-yl)cyclopropyl]carbonyl}amino)benzamide] | – | – | 362 | 30
12 | COc1c(F)cc(C(=O)Nc2ccc(-c3ccccc3)cc2)cc1NC(=O)CN1CCOCC1 [Example 134, N-(biphenyl-4-yl)-3-fluoro-4-methoxy-5-[(morpholin-4-ylacetyl)amino]benzamide] | 398 | ≥ 50 | – | –
13 | NC(C(=O)Nc1cc(NC(=O)c2ccc(-c3ccccc3)cc2)ccc1OC(F)(F)F)C(F)(F)F (stereo not shown) [Example 135, N-{3-[(333-trifluoroalanyl)amino]-4-[trifluoromethoxy)phenyl) biphenyl-4-carboxamide] | 592 | ≥ 50 | – | –
14 | COc1c(Cl)cc(C(=O)Nc2ccc(-c3ccccc3)cc2)cc1NC(=O)CN1CCOCC1 [Example 136, N-(biphenyl-4-yl)-3-chloro-4-methoxy-5-[(morpholin-4-ylacetyl]amino]benzamide] | 750 | 38.5 | – | –
15 | COc1ccc(C(=O)Nc2ccc(-c3ccccc3)cc2)cc1NC(=O)[C@@H](C(C)C)N1CCOCC1 [Example 137, N-(biphenyl-4-yl)-4-methoxy-3-{[(2R)-3-methyl-2-(morpholin-4-yl)butanoyl]amino} benzamide] | 925 | 33 | – | –

Further lines, results first:

Row | IC50 ([1]; Homo sapiens, HCT-116, 36 h) [nM] | IC50 ([2]; Homo sapiens, HCT-116, 36 h) [µM] | IC50 [1] [nM] | IC50 [2] [µM] | SMILES
16 | 194 | ≥ 50 | – | – | O=C(CN1CCOCC1)Nc1cc(C(=O)Nc2ccc(-c3ccccc3)cc2)ccc1OCCO [Example 93, N-(biphenyl-4-yl)-4-(2-hydroxyethoxy)-3-[(morpholin-4-ylacetyl)amino]benzamide]
17 | 162 | ≥ 50 | – | – | CS(=O)(=O)c1ccc(C(=O)Nc2ccc(-c3ccccc3)cc2)cc1NC(=O)CN1CCOCC1 [Example 111, N-(biphenyl-4-yl)-4-(methylsulfonyl)-3-[(morpholin-4-ylacetyl)amino]benzamide]
18 | 159 | ≥ 50 | – | – | O=C(Nc1ccc(-c2ccccc2)cc1)c1ccc(OC2CC2)c(NC(=O)C2(N3CCOCC3)CC2)c1 [Example 113, N-(biphenyl-4-yl)-4-(cyclopropyloxy)-3-({[1-(morpholin-4-yl)cyclopropyl]carbonyl}amino)benzamide]
19 | 132 | ≥ 50 | – | – | NC(=O)c1ccc(C(=O)Nc2ccc(-c3ccccc3)cc2)cc1NC(=O)CN1CCOCC1 [Example 116, N^4-(Biphenyl-4-yl)-2-[(morpholin-4-ylacetyl)amino]terephthalamide]
20 | 153 | ≥ 50 | – | – | CC(C)(O)c1ccc(C(=O)Nc2ccc(-c3ccccc3)cc2)cc1NC(=O)CN1CCOCC1 [Example 117, N-(biphenyl-4-yl)-4-(2-hydroxypropan-2-yl)-3-[(morpholin-4-ylacetyl)amino]benzamide]
21 | 237 | ≥ 50 | – | – | O=C(CN1CCOCC1)Nc1cc(C(=O)Nc2ccc(-c3ccccc3)cc2)ccc1OCCCO [Example 121, N-(biphenyl-4-yl)-4-(3-hydroxypropoxy)-3-[(morpholin-4-ylacetyl)amino]benzamide]
22 | 105 | 8.9 | – | – | CN1CCN(CC(=O)Nc2cc(C(=O)Nc3ccc(-c4ccccc4)cc3)ccc2CS(C)(=O)=O)CC1 [Example 125, N-(biphenyl-4-yl)-3-{[(4-methylpiperazin-1-yl)acetyl]amino}-4-[(methylsulfonyl)methyl]benzamide]
23 | 222 | ≥ 50 | – | – | CC(=O)NCCCOc1ccc(C(=O)Nc2ccc(-c3ccccc3)cc2)cc1NC(=O)CN1CCOCC1 [Example 126, 4-(3-acetamidopropoxy)-N-(biphenyl-4-yl)-3-[(morpholin-4-ylacetyl)amino]benzamide]
24 | 74 | ≥ 50 | – | – | O=C(CN1CC2CCC(C1)O2)Nc1cc(C(=O)Nc2ccc(-c3ccccc3)cc2)ccc1OC1CC1 [Example 128, N-(biphenyl-4-yl)-4-(cyclopropyloxy)-3-[(8-oxa-3-azabicyclo[3.2.1]oct-3-ylacetyl)amino]benzamide]
25 | 195 | 11 | – | – | COc1ccc(NC(=O)c2ccc(-c3ccccc3)cc2)cc1NC(=O)C1(NC(=O)OC(C)(C)C)CC1 [Example 129, tert-butyl[1-({5-[(biphenyl-4-ylcarbonyl)amino]-2-methoxyphenyl}carbamoyl)cyclopropyl]carbamate]
26 | 248 | 28 | – | – | COCCNCC(=O)Nc1cc(NC(=O)c2ccc(-c3ccccc3)cc2)ccc1OC(F)(F)F [Example 130, N-[3-{[N-(2-methoxyethyl)glycyl]amino} -4-(trifluoromethoxy)phenyl] biphenyl-4-carboxamide]
